# Laboratory results published in publication PMC6679423 (International Journal of Molecular Sciences, 2019).
# Marks after values point to notes of the source that are not given here.
# Assays:
# [1] = system: CYP3A4; details: cited from earlier work
# [2] = target: T1, human recombinant CYP1A1 (Homo sapiens, UniProt P04798); experiment: Vandetanib oxidation by human recombinant CYP1A1 (Supersomes); format: in vitro ADME
# T1 construct: purchased Gentest Corp; host or cells: insect cells (baculovirus)
# T1 sequence (P04798 1-512): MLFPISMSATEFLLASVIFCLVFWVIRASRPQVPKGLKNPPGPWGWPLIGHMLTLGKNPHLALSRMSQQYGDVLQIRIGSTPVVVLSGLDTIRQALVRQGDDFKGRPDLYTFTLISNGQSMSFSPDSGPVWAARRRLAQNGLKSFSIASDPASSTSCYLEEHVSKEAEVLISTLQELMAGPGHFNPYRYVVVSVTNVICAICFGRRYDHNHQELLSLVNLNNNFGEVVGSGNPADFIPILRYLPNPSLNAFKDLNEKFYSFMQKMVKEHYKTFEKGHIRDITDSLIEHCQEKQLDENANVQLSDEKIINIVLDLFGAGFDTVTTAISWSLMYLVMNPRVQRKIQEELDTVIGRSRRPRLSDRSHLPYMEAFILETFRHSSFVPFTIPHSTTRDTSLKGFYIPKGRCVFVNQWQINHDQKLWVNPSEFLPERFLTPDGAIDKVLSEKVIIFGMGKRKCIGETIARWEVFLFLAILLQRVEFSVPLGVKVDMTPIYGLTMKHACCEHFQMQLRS
# Experimental: (§1) Vandetanib was from LC Laboratories (Woburn, MA, USA). Ketoconazole, NADPH, methimazol and other chemicals were all purchased from Sigma-Aldrich (St. Louis, MO, USA). The purity of all chemicals met the standards of American Chemical Society, unless noted otherwise. All animal experiments were conducted in accordance with the Regulations for the Care and Use of Laboratory Animals (311/1997, Ministry of Agriculture, Czech Republic), which follows the Declaration of Helsinki. Male Wistar rats (~125–150 g; AnLab, Czech Republic), male C57BL/6 mice ([…]; CXR Bioscience Ltd., Dundee, UK), and male New Zealand rabbits (2.5–3 kg; AnLab, Czech Republic) were employed as animal models. Animals were placed in cages in temperature- and humidity-controlled rooms, acclimatized for five days and maintained at 22 °C with a 12 h light/dark period. Standardized diet and water were provided ad libitum. Rats, mice and rabbits used to prepare microsomal fraction from untreated animals were sacrificed by cervical dislocation, livers snap-frozen in liquid nitrogen and stored at −80 °C until further processing (see below). For controls, livers of the animals were removed immediately after sacrifice, divided into small pieces (~1 g), snap-frozen in liquid nitrogen, and stored at −80 °C until isolation of microsomal fractions. Pooled microsomes were used for all in vitro experiments in the present study and prepared from 10 livers/group for all animal species following established protocols. Microsomal fractions were stored at −80 °C until analysis. Protein concentrations in the microsomal fractions were assessed using the bicinchoninic acid protein assay with bovine serum albumin as a standard. Male human hepatic microsomes (pooled sample) (sample LOT: 3043885) were from Gentest Corp. (Woburn, MA, USA). Microsomes from livers of twelve human donors were obtained from Gentest Corp. (Woburn, MA, USA) (cat. no. HG43–1, HG103, HG74, HG93, HG24, HG27, HG23, HG32, HK31, HK34, HG03, and HG42). Each human microsomal sample has been characterized for CYP, FMO and protein contents and specific CYP activities by Gentest Corp. We reanalyzed each microsomal preparation for specific CYP, NADPH:CYP reductase (POR) and FMO activities by assays described in the protocols of Gentest Corp. Our data were similar to those reported by Gentest Corp. in their specification sheets. […]
# [3] = system: rat hepatic microsomes; experiment: Oxidation of vandetanib by rat hepatic microsomes; format: in vitro ADME; details: 50 µM vandetanib, N-oxide higher
# Experimental: (§2) Vandetanib was from LC Laboratories (Woburn, MA, USA). Ketoconazole, NADPH, methimazol and other chemicals were all purchased from Sigma-Aldrich (St. Louis, MO, USA). The purity of all chemicals met the standards of American Chemical Society, unless noted otherwise. All animal experiments were conducted in accordance with the Regulations for the Care and Use of Laboratory Animals (311/1997, Ministry of Agriculture, Czech Republic), which follows the Declaration of Helsinki. Male Wistar rats (~125–150 g; AnLab, Czech Republic), male C57BL/6 mice ([…]; CXR Bioscience Ltd., Dundee, UK), and male New Zealand rabbits (2.5–3 kg; AnLab, Czech Republic) were employed as animal models. Animals were placed in cages in temperature- and humidity-controlled rooms, acclimatized for five days and maintained at 22 °C with a 12 h light/dark period. Standardized diet and water were provided ad libitum. Rats, mice and rabbits used to prepare microsomal fraction from untreated animals were sacrificed by cervical dislocation, livers snap-frozen in liquid nitrogen and stored at −80 °C until further processing (see below). […] Protein concentrations in the microsomal fractions were assessed using the bicinchoninic acid protein assay with bovine serum albumin as a standard. […]
# [4] = system: mouse hepatic microsomes; experiment: Oxidation of vandetanib by mouse hepatic microsomes; format: in vitro ADME; details: 50 µM vandetanib, N-oxide higher
# Experimental: as §2
# [5] = system: human liver microsomes; experiment: Vandetanib metabolite formation by hepatic microsomes of 12 human donors; format: in vitro ADME; details: human hepatic microsomal sample HK23; detection limit < 0.002
# [6] = system: human recombinant FMO1; experiment: Vandetanib oxidation by human recombinant FMOs (Supersomes); format: in vitro ADME; details: recombinant FMO1 vs FMO3
# Experimental: as §2
# [7] = system: human hepatic microsomes; experiment: Oxidation of vandetanib by human hepatic microsomes; format: in vitro ADME
# Description: The reaction was initiated by adding vandetanib.
# [8] = system: rabbit hepatic microsomes; experiment: Oxidation of vandetanib by rabbit hepatic microsomes; format: in vitro ADME; details: 50 µM vandetanib, N-oxide higher
# Experimental: as §2
# [9] = system: human hepatic microsomes; experiment: Correlation of CYP- and FMO-linked activities with vandetanib metabolite formation in human hepatic microsomes; format: in vitro ADME; details: 12 human liver microsomal samples; for Correlation coefficient (r) of metabolite amount with CYP2E1 activity: chlorzoxazone-6-hydroxylase
# Experimental: as §1, with “sheets. The content of CYP, specific CYP and FMO activities in each human hepatic microsomes [phenacetin-O-deethylation (CYP1A2), coumarin-7-hydroxylation (CYP2A6), (S)-mephenytoin-N-demethylase (CYP2B6), paclitaxel-6α-hydroxylation (CYP2C8), diclofenac-4’-hydroxylation (CYP2C9), (S)-mephenytoin-4′-hydroxylation (CYP2C19), bufuralol-1’-hydroxylation (CYP2D6), chlorzoxazone-6-hydroxylation (CYP2E1), testosterone-6β-hydroxylation (CYP3A4), lauric acid-12-hydroxylation (CYP4A), methyl-p-tolyl sulfide oxidase (FMO)] are shown in Table 2. Human recombinant enzymes were used in the forms of Supersomes™ and obtained from Gentest Corp. In Supersomes™ microsomal fractions were isolated from insect cells that are transfected with baculovirus constructs containing cDNA of human CYP enzymes (CYP1A1/2, 1B1, 2A6, 2B6, 2C8/9/18/19/, 2D6, 2E1, 3A4). These Supersomes™ also express NADPH:CYP oxidoreductase (POR). However, because they are microsomes (particles of broken endoplasmic reticulum), other enzymes (proteins) of the endoplasmic reticulum membrane (like NADH:cytochrome b5 reductase and cytochrome b5) are also expressed at basal levels in these Supersomes™. We also utilized Supersomes™ which over-expressed cytochrome b5, in a molar ratio of CYP to cytochrome b5 of 1 to 5. In Supersomes™ where cytochrome b5 was not over-expressed (see above) pure cytochrome b5 was added to reach a molar ratio of CYP to cytochrome b5 of 1 to 5. Reconstitution of Supersomes™ with purified cytochrome b5 was performed as described previously.” for “sheets.”
# [10] = system: VEGFR and EGFR; details: compared to the parent drug; cited from earlier work
# [11] = system: human liver microsomes; experiment: Vandetanib metabolite formation by hepatic microsomes of 12 human donors; format: in vitro ADME; details: detection limit < 0.002
# Experimental: as §1, with “sheets. The content of CYP, specific CYP and FMO activities in each human hepatic microsomes [phenacetin-O-deethylation (CYP1A2), coumarin-7-hydroxylation (CYP2A6), (S)-mephenytoin-N-demethylase (CYP2B6), paclitaxel-6α-hydroxylation (CYP2C8), diclofenac-4’-hydroxylation (CYP2C9), (S)-mephenytoin-4′-hydroxylation (CYP2C19), bufuralol-1’-hydroxylation (CYP2D6), chlorzoxazone-6-hydroxylation (CYP2E1), testosterone-6β-hydroxylation (CYP3A4), lauric acid-12-hydroxylation (CYP4A), methyl-p-tolyl sulfide oxidase (FMO)] are shown in Table 2. Human recombinant enzymes were used in the forms of Supersomes™ and obtained from Gentest Corp. In Supersomes™ microsomal fractions were isolated from insect cells that are transfected with baculovirus constructs containing cDNA of human CYP enzymes (CYP1A1/2, 1B1, 2A6, 2B6, 2C8/9/18/19/, 2D6, 2E1, 3A4). These Supersomes™ also express NADPH:CYP oxidoreductase (POR). However, because they are microsomes (particles of broken endoplasmic reticulum), other enzymes (proteins) of the endoplasmic reticulum membrane (like NADH:cytochrome b5 reductase and cytochrome b5) are also expressed at basal levels in these Supersomes™. We also utilized Supersomes™ which over-expressed cytochrome b5, in a molar ratio of CYP to cytochrome b5 of 1 to 5. In Supersomes™ where cytochrome b5 was not over-expressed (see above) pure cytochrome b5 was added to reach a molar ratio of CYP to cytochrome b5 of 1 to 5. Reconstitution of Supersomes™ with purified cytochrome b5 was performed as described previously.” for “sheets.”
# [12] = target: CYP enzymes in human liver microsomes (Homo sapiens, UniProt P08684); experiment: Effects of inhibitors on N-desmethylvandetanib formation in human liver microsomes; details: inhibitor 50 μM equimolar to vandetanib (50 μM), 0.1 nmol microsomal CYP
# Experimental: After the incubations, 5 µL of 1 mM phenacetine (dissolved in methanol) was added as internal standard. The reaction was stopped by extraction with dichlormethane (2 × 1 mL).
# Inhibition studies in human liver microsomes were essentially conducted as reported previously.
# CYP enzymes in human liver microsomes, sequence (P08684 2-503): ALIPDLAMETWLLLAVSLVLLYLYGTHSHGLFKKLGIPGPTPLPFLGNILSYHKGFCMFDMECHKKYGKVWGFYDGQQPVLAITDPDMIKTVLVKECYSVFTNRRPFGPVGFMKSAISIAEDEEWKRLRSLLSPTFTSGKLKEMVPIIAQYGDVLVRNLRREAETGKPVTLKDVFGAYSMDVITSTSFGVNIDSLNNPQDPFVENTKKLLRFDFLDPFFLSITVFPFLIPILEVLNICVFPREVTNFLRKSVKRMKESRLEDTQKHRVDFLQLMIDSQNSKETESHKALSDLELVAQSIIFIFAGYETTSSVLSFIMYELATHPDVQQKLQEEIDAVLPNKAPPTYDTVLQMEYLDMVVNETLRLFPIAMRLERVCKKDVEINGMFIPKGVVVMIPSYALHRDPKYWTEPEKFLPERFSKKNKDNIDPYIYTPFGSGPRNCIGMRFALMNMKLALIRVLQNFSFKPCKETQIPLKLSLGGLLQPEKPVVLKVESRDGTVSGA
# CYP enzymes in human liver microsomes, sequence (P16435 2-677, further chain): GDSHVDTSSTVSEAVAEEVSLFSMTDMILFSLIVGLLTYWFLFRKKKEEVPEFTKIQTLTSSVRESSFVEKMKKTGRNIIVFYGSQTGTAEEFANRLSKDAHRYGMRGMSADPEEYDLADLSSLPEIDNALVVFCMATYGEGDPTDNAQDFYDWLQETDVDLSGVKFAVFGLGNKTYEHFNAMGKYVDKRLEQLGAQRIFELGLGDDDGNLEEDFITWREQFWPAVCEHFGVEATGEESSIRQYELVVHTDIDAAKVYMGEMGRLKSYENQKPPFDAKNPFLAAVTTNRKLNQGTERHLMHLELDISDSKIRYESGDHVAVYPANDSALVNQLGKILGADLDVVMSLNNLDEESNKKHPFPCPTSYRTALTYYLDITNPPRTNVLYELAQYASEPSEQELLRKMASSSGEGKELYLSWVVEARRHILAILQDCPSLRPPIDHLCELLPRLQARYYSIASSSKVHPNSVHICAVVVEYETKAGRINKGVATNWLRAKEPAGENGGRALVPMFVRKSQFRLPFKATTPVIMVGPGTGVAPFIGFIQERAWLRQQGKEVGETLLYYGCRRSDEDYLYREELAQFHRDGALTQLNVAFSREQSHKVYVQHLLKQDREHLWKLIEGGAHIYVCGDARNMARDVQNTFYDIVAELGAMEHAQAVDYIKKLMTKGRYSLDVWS
compound,measurement,setting,value
CCC(C)n1ncn(-c2ccc(N3CCN(c4ccc(OCC5COC(Cn6cncn6)(c6ccc(Cl)cc6Cl)O5)cc4)CC3)cc2)c1=O (stereo not shown) [itraconazol],inhibition of the formation of N-desmethylvandetanib after vandetanib treatment,[1],almost ineffective
"COc1cc2c(Nc3ccc(Br)cc3F)ncnc2cc1OCC1CCN(C)CC1 [vandetanib, N-(4-bromo-2-fluorophenyl)-6-methoxy-7-[(1-methylpiperidin-4-yl)-methoxy]-quinazolin-4-amine, reference compound]","VMax, maximal velocity of N-desmethylvandetanib formation","[2]; CYP1A1, hyperbolic kinetics",0.76 ± 0.02 peak area/min/nmol CYP
same,"K0.5, substrate concentration corresponding to half-maximal velocity","[2]; CYP1A1, oxidation to N-desmethylvandetanib",35.12 ± 2.75 µM
COc1cc2c(Nc3ccc(Br)cc3F)ncnc2cc1OCC1CC[N+](C)([O-])CC1 (stereo not shown) [vandetanib-N-oxide],"F, fold difference between formation of N-desmethylvandetanib and vandetanib-N-oxide",[3],4- to 8 fold
same,"F, fold difference between formation of N-desmethylvandetanib and vandetanib-N-oxide",[4],4- to 8 fold
same,vandetanib-N-oxide (M2) formed,[5],0.008 peak area/(mg protein × min)
same,efficiency of FMO1 to form vandetanib-N-oxide relative to FMO3,[6],over 5 times
same,vandetanib-N-oxide formed at fold lower amounts than N-desmethylvandetanib,[7],~ 4 fold
same,"F, fold difference between formation of N-desmethylvandetanib and vandetanib-N-oxide",[8],4- to 8 fold
same,Correlation coefficient (r) of metabolite amount with POR,[9],0.035
same,Correlation coefficient (r) of metabolite amount with Total CYPs,[9],0.166
same,Correlation coefficient (r) of metabolite amount with CYP2C19 activity,[9]; (S)-mephenytoin-4′-hydroxylase,0.088
same,Correlation coefficient (r) of metabolite amount with CYP2B6 activity,[9]; (S)-mephenytoin-N-demethylase,0.093
same,Correlation coefficient (r) of metabolite amount with CYP2D6 activity,[9]; bufuralol-1′-hydroxylase,−0.343
same,Correlation coefficient (r) of metabolite amount with CYP2E1 activity,[9],0.714
same,Correlation coefficient (r) of metabolite amount with CYP2E1 activity,[9]; listed as M2,0.714 **
same,Correlation coefficient (r) of metabolite amount with CYP2A6 activity,[9]; coumarine-7-hydroxylase,−0.339
same,Correlation coefficient (r) of metabolite amount with CYP2C9 activity,[9]; diclofenac-4′-hydroxylase,−0.039
same,Correlation coefficient (r) of metabolite amount with FMO activity,"[9]; methyl-p-tolyl sulfide oxidase, listed as M2",0.736 **
same,Correlation coefficient (r) of metabolite amount with CYP2C8 activity,[9]; paclitaxel-6α-hydroxylase,0.288
same,Correlation coefficient (r) of metabolite amount with CYP1A2 activity,[9]; phenacetin-O-deethylase,−0.157
same,Correlation coefficient (r) of metabolite amount with CYP3A4 activity,[9]; testosterone-6β-hydroxylase,−0.200
same,pharmacological activity relative to vandetanib (fold less active),[10],more than 50 fold
same,vandetanib-N-oxide (M2) formed,[11]; human hepatic microsomal sample HG24,0.004 peak area/(mg protein × min)
same,vandetanib-N-oxide (M2) formed,[11]; human hepatic microsomal sample HG42,0.015 peak area/(mg protein × min)
same,vandetanib-N-oxide (M2) formed,[11]; human hepatic microsomal sample HG74,0.004 peak area/(mg protein × min)
same,vandetanib-N-oxide (M2) formed,[11]; human hepatic microsomal sample HG93,0.112 peak area/(mg protein × min)
same,vandetanib-N-oxide (M2) formed,[11]; human hepatic microsomal sample HG103,0.004 peak area/(mg protein × min)
same,vandetanib-N-oxide (M2) formed,[11]; human hepatic microsomal sample HK31,0.015 peak area/(mg protein × min)
"O=c1cc(-c2ccccc2)oc2c1ccc1ccccc12 [α-Napththoflavone, α-naphthoflavone]","% of Inhibition, N-Desmethyvandetanib Formation",[12],0%
same,"% of Inhibition, N-Desmethyvandetanib Formation",[12]; listed as α-NF,no inhibitory effects
